For the assay, the target named is T1, Recombinant (1-346) HPK1 (h) (Homo sapiens, UniProt Q92918).
T1 construct: Recombinant (1-346) HPK1 (h) is incubated with 8 mM MOPS pH 7.0
T1 sequence (Q92918 1-346): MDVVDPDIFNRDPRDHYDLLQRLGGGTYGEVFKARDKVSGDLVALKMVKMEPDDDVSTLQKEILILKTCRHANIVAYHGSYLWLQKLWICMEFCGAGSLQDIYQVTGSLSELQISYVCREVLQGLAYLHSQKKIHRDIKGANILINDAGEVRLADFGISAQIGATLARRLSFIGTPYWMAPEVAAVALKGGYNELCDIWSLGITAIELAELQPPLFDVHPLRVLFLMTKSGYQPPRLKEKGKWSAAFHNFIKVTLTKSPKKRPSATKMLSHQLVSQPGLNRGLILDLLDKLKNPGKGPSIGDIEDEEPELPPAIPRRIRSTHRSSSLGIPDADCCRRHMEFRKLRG
Description: HPK1 Human STE Kinase Enzymatic Radiometric Assay. The assay is classed as biochemical. To be noted: read-out: HPK1 IC50 nM Range*. The method, then:
A stock solution of 10 mM of test compound is prepared in DMSO. The compound plate was prepared by 3-fold and 9-point serial dilutions. […] The reaction is initiated by The addition of the Mg/ATP mix. After incubation for 40 minutes at RT, the reaction is stopped by the addition of phosphoric acid to a concentration of 0.5%.
Consider `Cc1c[nH]c(=O)c2ccc(-c3cc(-c4ccc(F)c(CN(C)C)c4)c(F)nc3N)cc12` [I-626, 6-(2-amino-5-(3-((dimethylamino)methyl)-4-fluorophenyl)-6-fluoropyridin-3-yl)-4-methylisoquinolin-1(2H)-one], for which the IC50 was in the range of 101 to 1000 nM. For the compound `CC(C)(N)c1cc(-c2cc(-c3ccc4c(c3)CCNC4=O)c(N)nc2F)ccc1F` [I-625, 6-(2-amino-5-(3-(2-aminopropan-2-yl)-4-fluorophenyl)-6-fluoropyridin-3-yl)-3,4-dihydroisoquinolin-1(2H)-one], the IC50 was in the range of 101 to 1000 nM.

Consider `CC(=O)N1CCN(c2ccc(-c3cc(-c4cc5c(cc4F)C(=O)NCC5)c(N)nc3F)nc2)CC1` [I-592, 6-(5-(4-acetylpiperazin-1-yl)-6′-amino-2′-fluoro-[2,3′-bipyridin]-5′-yl)-7-fluoro-3,4-dihydroisoquinolin-1(2H)-one], for which the IC50 is 0.1 to 10 nM. For `CC(C)N1CCN(c2ccc(-c3cc(-c4ccc5c(c4)S(=O)(=O)CNC5=O)c(N)nc3F)cc2)CC1` [I-424, 7-(2-amino-6-fluoro-5-(4-(4-isopropylpiperazin-1-yl)phenyl)pyridin-3-yl)-2,3-dihydro-4H-benzo[e][1,3]thiazin-4-one 1,1-dioxide], the IC50 lay in the range of 11 to 100 nM.

For `CCN(C)Cc1cc(-c2cc(-c3cc4c(cc3F)C(=O)NCC4)c(N)nc2F)ccc1C1CCOCC1` [I-552, 6-(2-amino-5-(3-((ethyl(methyl)amino)methyl)-4-(tetrahydro-2H-pyran-4-yl)phenyl)-6-fluoropyridin-3-yl)-7-fluoro-3,4-dihydroisoquinolin-1(2H)-one], the IC50 is 11 to 100 nM. For the compound `Nc1nc(F)c(-c2ccc(C3CCOCC3)c(CN3CCC3)n2)cc1-c1cc2c(cc1F)C(=O)NCC2` [I-602, 6-(6′-amino-6-(azetidin-1-ylmethyl)-2′-fluoro-5-(tetrahydro-2H-pyran-4-yl)-[2,3′-bipyridin]-5′-yl)-7-fluoro-3,4-dihydroisoquinolin-1(2H)-one], the concentration for half-maximal inhibition (IC50) fell in the range of 0.1 to 10 nM. To `COCCN(C)Cc1cc(-c2cc(-c3cc4c(cc3F)C(=O)NCC4)c(N)nc2F)ccc1C1CCOCC1` [I-574, 6-(2-amino-6-fluoro-5-(3-(((2-methoxyethyl)(methyl)amino)methyl)-4-(tetrahydro-2H-pyran-4-yl)phenyl)pyridin-3-yl)-7-fluoro-3,4-dihydroisoquinolin-1(2H)-one] belongs 0.1 to 10 nM. Consider `CN(C)Cc1cc(-c2cc(-c3ccc4c(c3)CCNC4=O)c(N)nc2F)ccc1OCCCC(F)F` [I-524, 6-(2-amino-5-(4-(4,4-difluorobutoxy)-3-((dimethylamino)methyl)phenyl)-6-uoropyridin-3-yl)-3,4-dihydroisoquinolin-1(2H)-one], for which the IC50 lay in the range of 0.1 to 10 nM. `CN(C)Cc1cc(-c2cc(-c3ccc4c(c3)CCNC4=O)c(N)nc2F)ccc1C1CCOC1` (centres unmarked) [I-620, 6-(2-amino-5-(3-((dimethylamino)methyl)-4-(tetrahydrofuran-3-yl)phenyl)-6-fluoropyridin-3-yl)-3,4-dihydroisoquinolin-1(2H)-one]: the IC50 was 0.1 to 10 nM. Take `Cc1[nH]c(=O)c2cc(F)c(-c3cc(-c4ccc(N5CCN(C(C)C)CC5)cc4)c(F)nc3N)cc2c1F` [I-572, 6-(2-amino-6-fluoro-5-(4-(4-isopropylpiperazin-1-yl)phenyl)pyridin-3-yl)-4,7-difluoro-3-methylisoquinolin-1(2H)-one]: the half-maximal inhibitory concentration (IC50) was 0.1 to 10 nM. To `Nc1nc(F)c(-c2ccc(N3CCN(CCCC(F)F)CC3)cn2)cc1-c1ccc2c(c1)CCNC2=O` [I-593, 6-(6′-amino-5-(4-(4,4-difluorobutyl)piperazin-1-yl)-2′-fluoro-[2,3′-bipyridin]-5′-yl)-3,4-dihydroisoquinolin-1(2H)-one] belongs 0.1 to 10 nM; to `C[C@H]1CN(c2ccc(-c3cc(-c4cc5c(cc4F)C(=O)NCC5)c(N)nc3F)cc2CN2CCC2)CCO1` [I-599, (S)-6-(2-amino-5-(3-(azetidin-1-ylmethyl)-4-(2-methylmorpholino)phenyl)-6-fluoropyridin-3-yl)-7-fluoro-3,4-dihydroisoquinolin-1(2H)-one], 11 to 100 nM. To `Nc1nc(F)c(-c2ccc(N3CCOCC3)c(CN3CCCC3)c2)cc1-c1ccc2c(c1)CCNC2=O` [I-491, 6-(2-amino-6-fluoro-5-(4-morpholino-3-(pyrrolidin-1-ylmethyl)phenyl)pyridin-3-yl)-3,4-dihydroisoquinolin-1(2H)-one] belongs 11 to 100 nM. To `Nc1nc(F)c(-c2ccc(N3CCN(CC4CC4(F)F)CC3)cc2)cc1-c1ccc2c(c1)CCNC2=O` (centres unmarked) [I-640, 6-(2-amino-5-(4-(4-((2,2-difluorocyclopropyl)methyl)piperazin-1-yl)phenyl)-6-fluoropyridin-3-yl)-3,4-dihydroisoquinolin-1(2H)-one] belongs 0.1 to 10 nM; to `Nc1nc(F)c(-c2ccc(N3CCN(CC4CC4)CC3)cc2)cc1-c1cc(F)c2c(=O)[nH]cc(F)c2c1` [I-483, 6-(2-amino-5-(4-(4-(cyclopropylmethyl)piperazin-1-yl)phenyl)-6-fluoropyridin-3-yl)-4,8-difluoroisoquinolin-1(2H)-one], 0.1 to 10 nM. Regarding `Nc1nc(F)c(-c2ccc(N3CCOCC3)c(CN3CCOCC3)c2)cc1-c1cc2c(cc1F)C(=O)NCC2` [I-497, 6-(2-amino-6-fluoro-5-(4-morpholino-3-(morpholinomethyl)phenyl)pyridin-3-yl)-7-fluoro-3,4-dihydroisoquinolin-1(2H)-one], the IC50 lay within 11 to 100 nM.

As for `CN(C)Cc1cc(-c2cc(-c3ccc4c(c3)CCNC4=O)c(N)nc2F)ccc1N1CCS(=O)(=O)CC1` [I-493, 6-(2-amino-5-(3-((dimethylamino)methyl)-4-(1,1-dioxidothiomorpholino)phenyl)-6-fluoropyridin-3-yl)-3,4-dihydroisoquinolin-1(2H)-one], the IC50 is 11 to 100 nM. For `Cc1c[nH]c(=O)c2ccc(-c3cc(-c4ccc5c(c4)[C@H](N(C)C)CCO5)c(F)nc3N)cc12` [I-628, (R)-6-(2-amnio-5-(4-(dimethylamino)chroman-6-yl)-6-fluoropyridin-3-yl)-4-methylisoquinolin-1(2H)-one], the IC50 was in the range of 11 to 100 nM.

Take `CC(C)N1CCN(c2ccc(-c3cc(-c4cc(F)c5c(=O)[nH]cc(Cl)c5c4)c(N)nc3F)cc2)CC1` [I-489, 6-(2-amino-6-fluoro-5-(4-(4-isopropylpiperazin-1-yl)phenyl)pyridin-3-yl)-4-chloro-8-fluoroisoquinolin-1(2H)-one]: the IC50 lay within 0.1 to 10 nM.

For the compound `Nc1nc(F)c(-c2ccc(C3CCOCC3)c(CN3CCCC3)c2)cc1-c1ccc2c(c1)CCNC2=O` [I-557, 6-(2-amino-6-fluoro-5-(3-(pyrrolidin-1-ylmethyl)-4-(tetrahydro-2H-pyran-4-yl)phenyl)pyridin-3-yl)-3,4-dihydroisoquinolin-1(2H)-one], the IC50 fell in the range of 11 to 100 nM. As to `CC(C)N1CCN(c2ccc(-c3cc(-c4ccc5c(=O)[nH]cc(Cl)c5c4)c(N)nc3F)cc2)CC1` [I-466, 6-(2-amino-6-fluoro-5-(4-(4-isopropylpiperazin-1-yl)phenyl)pyridin-3-yl)-4-chloroisoquinolin-1(2H)-one], the IC50 fell in the range of 11 to 100 nM.

With `CN(C)Cc1cc(-c2cc(-c3ccc4c(c3)CCNC4=O)c(N)nc2F)ccc1OCC1CCOCC1` [I-532, 6-(2-amino-5-(3-((dimethylamino)methyl)-4-((tetrahydro-2H-pyran-4-yl)methoxy)phenyl)-6-fluoropyridin-3-yl)-3,4-dihydroisoquinolin-1(2H)-one], the IC50 lay within 11 to 100 nM. To `Nc1nc(F)c(-c2ccc(N3CCOCC3)c(CN3CCC3)n2)cc1-c1cc2c(cc1F)C(=O)NCC2` [I-579] belongs 0.1 to 10 nM; to `CN(C)[C@@H]1COc2ccc(-c3cc(-c4ccc5c(=O)[nH]cc(F)c5c4)c(N)nc3F)cc21` [I-630, (S)-6-(2-amino-5-(3-(dimethylamino)-2,3-dihydrobenzofuran-5-yl)-6-fluoropyridin-3-yl)-4-fluoroisoquinolin-1(2H)-one], 11 to 100 nM. To `CN(C)Cc1cc(-c2cc(-c3cc4c(cc3F)C(=O)NCC4)c(N)nc2F)ccc1N1CCN(CCCC(F)F)CC1` [I-447, 6-(2-amino-5-(4-(4-(4,4-difluorobutyl)piperazin-1-yl)-3-((dimethylamino)methyl)phenyl)-6-fluoropyridin-3-yl)-7-fluoro-3,4-dihydroisoquinolin-1(2H)-one] belongs 0.1 to 10 nM.

On to `COc1c[nH]c(=O)c2ccc(-c3cc(-c4ccc(N5CCN(C(C)C)CC5)cc4)c(F)nc3N)cc12` [I-537], for which the IC50 was 0.1 to 10 nM. To `Cc1c[nH]c(=O)c2ccc(-c3cc(-c4ccc(N5CCOCC5)c(CN(C)C)n4)c(F)nc3N)cc12` [I-588, 6-(6′-amino-6-((dimethylamino)methyl)-2′-fluoro-5-morpholino-[2,3′-bipyridin]-5′-yl)-4-methylisoquinolin-1(2H)-one] belongs 0.1 to 10 nM; to `CN(C)Cc1cc(-c2cc(-c3cc4c(cc3F)C(=O)NCC4)c(N)nc2F)ccc1C1CCOC1` (centres unmarked) [I-621, 6-(2-amino-5-(3-((dimethylamino)methyl)-4-(tetrahydrofuran-3-yl)phenyl)-6-fluoropyridin-3-yl)-7-fluoro-3,4-dihydroisoquinolin-1(2H)-one], 11 to 100 nM; to `Cc1[nH]c(=O)c2ccc(-c3cc(-c4ccc(N5CCN(CC6CC6)CC5)cc4)c(F)nc3N)cc2c1F` [I-456, 6-(2-amino-5-(4-(4-(cyclopropylmethyl)piperazin-1-yl)phenyl)-6-fluoropyridin-3-yl)-4-fluoro-3-methylisoquinolin-1(2H)-one], 0.1 to 10 nM.

The IC50 is the concentration that inhibits the measured activity by half.

Source of the values: patent publication US20240343704A1, “HALO-SUBSTITUTED AMINO PYRIDINE COMPOUNDS AS INHIBITORS OF THE HAEMATOPOIETIC PROGENITOR KINASE 1 (HPK1)” (priority 2021, published 2024).
